Experimental data from patent US8586300B2, “Genetic polymorphisms and infertility” (The University of North Carolina at Chapel Hill, priority 2008, dated 2013).

Columns and labels:
[1] = test system: isolated rat hepatic mitochondria; conditions: inhibition of electron transport chain Complex I (rotenone) or Complex II (malonate); cited from earlier work
spermatozoa mitochondria [2] = assay: JC-1 staining, mitochondrial membrane potential in sperm after betaine supplementation; type: in vivo, mouse; conditions: JC-1 staining of sperm
Procedure: FIGS. 17A-17D are bar graphs showing the results of betaine supplementation on sperm concentration, motility and mitochondrial function in CHDH+/+ (WT), CHDH+/−, and CHDH−/− (KO) mice. […] Spermatozoa concentration was determined by counting cells using a hemocytometer. Results are presented as mean±SEM, n=9-11 animals per genotype. […] Motility assays were performed by counting the number of progressively motile sperm per total number of sperm in 5 squares of a hemocytometer. The results are presented as the mean % motility±SEM, p<0.001, n=8-9 animals per genotype. […] Absorbance values were normalized to the number of sperm assayed. All assays were performed in duplicate. The value for each animal is the mean of 4 assays (2 cauda epididymii, each assayed in duplicate per animal). […] The number of cells that fluoresced red was counted in 5 random fields of vision for each sample and results are expressed as a percent of the total cells in those fields. […]
To detect changes in mitochondrial membrane polarization, JC-1 staining was performed on sperm harvested from cauda epididymis (see FIGS. 8-11 and 13). […] 20 μl of each stained sample was examined with a fluorescence microscope (Olympus BX50, Olympus America, Inc., Center Valley, Pa., United States of America) and large band epifluorescence filters. […] Five fields of vision were counted for each sample and results expressed as percent of total cells.

[3] = humans, dietary supplementation; cited from earlier work
spermatozoa mitochondria [4] = assay: MTT assay of mitochondrial function in sperm after betaine supplementation; type: in vivo, mouse
Procedure: (§1) FIGS. 17A-17D are bar graphs showing the results of betaine supplementation on sperm concentration, motility and mitochondrial function in CHDH+/+ (WT), CHDH+/−, and CHDH−/− (KO) mice. […] Spermatozoa concentration was determined by counting cells using a hemocytometer. Results are presented as mean±SEM, n=9-11 animals per genotype. […] Motility assays were performed by counting the number of progressively motile sperm per total number of sperm in 5 squares of a hemocytometer. The results are presented as the mean % motility±SEM, p<0.001, n=8-9 animals per genotype. […] Absorbance values were normalized to the number of sperm assayed. All assays were performed in duplicate. The value for each animal is the mean of 4 assays (2 cauda epididymii, each assayed in duplicate per animal). Results are presented as the mean±SEM, p<0.05, n=5 animals/group. […] The number of cells that fluoresced red was counted in 5 random fields of vision for each sample and results are expressed as a percent of the total cells in those fields. Results are presented as mean±SEM, p<0.001, n=5 animals/group.
Sperm were isolated from the cauda epididymis as described above. An MTT (3-(4,5-dimethyl thiazol-2-yl)-2,5-diphenyl tetrazolium bromide) assay was conducted to measure mitochondrial function (Nasr-Esfahani, Aboutorabi et al. 2002) with the following modification: rather then visualizing positive MTT staining microscopically, MTT assays were conducted using a commercially available MIT assay kit (CellTiter 96 Non-radioactive Cell Proliferation Assay, Promega, Madison, Wis., United States of America) and cells were solubolized with the provided Solubolization/Stop Mix. 100 μL of isolated sperm were incubated in F10 media (Invitrogen Inc., Carlsbad, Calif., United States of America) in a 96-well plate with 15 μL of MTT solution at 37° C./5% CO2 for 2 hours. Following solubolization, the absorbance of each sample was read at a wavelength of 562 nm using a BIOTEK® plate reader (BioTek Instruments Inc., Winooski, Vt., United States of America). Absorbance was normalized to the number of sperm assayed.

sperm [5] = assay: Sperm motility (progressively motile sperm, hemocytometer) after betaine supplementation via drinking water; type: in vivo, mouse
Procedure: as §1
Eight to 10 week old CHDH^+/+ and CHDH^−/− male mice were anesthetized with Halothane (Henry Schein, Inc.). A V-shaped incision was made beginning at the penis and extending out to the midline of the body. Testis and epididymis were excised from the animal and immediately placed in a 6-well tissue culture dish containing approximately 1 ml of M16 media (Sigma) in a well. All media, plates and tubes used were warmed to 37° C. prior to the dissection. Any plate or tube containing sperm, once isolated, was kept at 37° C. with 5% CO2 for the duration of the experiment. The cauda epididymis was separated from the other structures and then placed in a 24-well plate containing 300 μl of fresh M16 media in each well. The cauda epididymis was then cut several times and the dish was incubated at 37° C. with 5% CO2 for 15 minutes. Sperm concentration was determined by counting cells with a hemocytometer. Percent motility was determined by counting the number of progressively motile sperm per total number of sperm present using a hemocytometer. “Progressively motile sperm” refers to sperm that swim forward in a somewhat straight line. Sperm that were moving, but that were swimming in circles were classified as non-progressively motile.
To determine whether sperm motility can be restored through betaine supplementation, CHDH−/− mice were given drinking water supplemented to 2% betaine for 38 days.

sperm [6] = assay: Sperm concentration (hemocytometer) after betaine supplementation; type: in vivo, mouse
Procedure: as §1, with “Results are presented as mean±SEM, p<0.001, n=5 animals/group.” left out
Eight to 10 week old CHDH^+/+ and CHDH^−/− male mice were anesthetized with Halothane (Henry Schein, Inc.). […] Sperm concentration was determined by counting cells with a hemocytometer. Percent motility was determined by counting the number of progressively motile sperm per total number of sperm present using a hemocytometer. […]

Row | Structure (SMILES) | choline-stimulated mitochondrial respiration [1] | effect on inner mitochondrial membrane potential (ΔΨm) (spermatozoa mitochondria [2]) | plasma tHcy concentrations [3] | decrease of MTT conversion (spermatozoa mitochondria [4]; CHDH+/+ sperm, betaine supplementation) | MTT conversion compared to untreated CHDH+/+ sperm (spermatozoa mitochondria [4]; CHDH+/+ spermatozoa, betaine via drinking water for 42 days) | amount of MTT reduction (spermatozoa mitochondria [4]; CHDH+/- or CHDH-/- spermatozoa, betaine supplementation) | changes in mitochondrial function, as measured by MTT assay and JC-1 staining (spermatozoa mitochondria [4]; betaine via drinking water for 42 days, exception CHDH+/+ MTT conversion) | effect on motility of spermatozoa (sperm [5]; CHDH+/+ or CHDH+/- spermatozoa, betaine via drinking water for 42 days) | sperm motility (sperm [5]; CHDH+/- mice, betaine supplementation) | asthenospermic phenotype (sperm [5]; CHDH-/- males, betaine via drinking water for 42 days) | progressive sperm motility (sperm [5]; CHDH-/- mice, drinking water supplemented to 2% betaine for 38 days) | effect on sperm concentration (sperm [6]; CHDH+/+, CHDH+/- or CHDH-/- mice, betaine supplementation) | number of sperm produced (sperm [6]; males of any CHDH genotype, betaine via drinking water for 42 days)
1 | O=C(O)CC(=O)O [malonate] | decreases |  |  |  |  |  |  |  |  |  |  |  | 
2 | C=C(C)[C@H]1Cc2c(ccc3c2O[C@@H]2COc4cc(OC)c(OC)cc4[C@@H]2C3=O)O1 [rotenone] | decreases |  |  |  |  |  |  |  |  |  |  |  | 
3 | C[N+](C)(C)CC(=O)O [betaine] |  | no effect | effective in lowering | 67% | significantly decreased | did not change | No changes | nor was there any effect | unaffected | improved, but not fully rescued | approximately 30% | did not have any effect | did not alter
